In patent publication US9156810B2, “Treatment of inflammatory bowel disease” (ALLERGAN, INC., priority 2003, dated 2015):

Assays:
[1] = biological target: T1, hEP4 (Homo sapiens (Human), UniProt P35408); assay: FLIPR calcium signal, HEK-293(EBNA) cells expressing hEP4/Gqs5; format: cell-based; conditions: bottom number in Table 2, read-out: hEP4 functional EC50
Method: (§1) HEK-293(EBNA) cells, stably expressing one type or subtype of recombinant human prostaglandin receptors (prostaglandin receptors expressed: hDP/Gqs5; hEP1; hEP2/Gqs5; hEP3A/Gqi5; hEP4/Gqs5; hFP; hIP; hTP), were cultured in 100 mm culture dishes in high-glucose DMEM medium containing 10% fetal bovine serum, 2 mM 1-glutamine, 250 μg/ml geneticin (G418) and 200 μg/ml hygromycin B as selection markers, and 100 units/ml penicillin G, 100 μg/m streptomycin and 0.25 μg/m amphotericin B.
(§2) Cells were seeded at a density of 5×10^4 cells per well in Biocoat® Poly-D-lysine-coated black-wall, clear-bottom 96-well plates (Becton-Dickinson) and allowed to attach overnight in an incubator at 37° C. Cells were then washed two times with HBSS-HEPES buffer (Hanks Balanced Salt Solution without bicarbonate and phenol red, 20 mM HEPES, pH 7.4) using a Denley Cellwash plate washer (Labsystems). After 45 minutes of dye-loading in the dark, using the calcium-sensitive dye Fluo-4 AM at a final concentration of 2 μM, plates were washed four times with HBSS-HEPES buffer to remove excess dye leaving 100 μl in each well. Plates were re-equilibrated to 37° C. for a few minutes.
Cells were excited with an Argon laser at 488 nm, and emission was measured through a 510-570 nm bandwidth emission filter (FLIPR™, Molecular Devices, Sunnyvale, Calif.). […] The peak increase in fluorescence intensity was recorded for each well. On each plate, four wells each served as negative (HBSS-HEPES buffer) and positive controls (standard agonists: BW245C (hDP); PGE2 (hEP1; hEP2/Gqs5; hEP3A/Gqi5; hEP4/Gqs5); PGF2 (hFP); carbacyclin (hIP); U-46619 (hTP), depending on receptor). The peak fluorescence change in each drug-containing well was then expressed relative to the controls.
(§3) Compounds were tested in a high-throughput (HTS) or concentration-response (CoRe) format. In the HTS format, forty-four compounds per plate were examined in duplicates at a concentration of 10^−5 M. To generate concentration-response curves, four compounds per plate were tested in duplicates in a concentration range between 10^−5 and 10^−11 M. The duplicate values were averaged.

[2] = biological target: hEP3D (Homo sapiens (Human), UniProt P43115); assay: Radioligand binding ([3H]PGE2), HEK-293 cell membranes expressing EP3 receptor; conditions: top number in Table 2
Method: (§4) HEK-293 cells stably expressing the human or feline FP receptor, or EP1, EP2, EP3, or EP4 receptors were washed with TME buffer, scraped from the bottom of the flasks, and homogenized for 30 sec using a Brinkman PT 10/35 polytron. TME buffer was added to achieve a final 40 ml volume in the centrifuge tubes (the composition of TME is 100 mM TRIS base, 20 mM MgCl2, […]; 10N HCl is added to achieve a pH of 7.4).
(§5) The cell homogenate was centrifuged at 19000 r.p.m. for 20 min at 4° C. using a Beckman Ti-60 rotor. The resultant pellet was resuspended in TME buffer to give a final 1 mg/ml protein concentration, as determined by Biorad assay. Radioligand binding competition assays vs. [^3H-]17-phenyl PGF2α, (5 nM) were performed in a 100 μl volume for 60 min. Binding reactions were started by adding plasma membrane fraction. The reaction was terminated by the addition of 4 ml ice-cold TRIS-HCl buffer and rapid filtration through glass fiber GF/B filters using a Brandel cell harvester. The filters were washed 3 times with ice-cold buffer and oven dried for one hour. Non-specific binding was determined with 10 uM unlabeled 17-phenyl PGF2α.
(§6) [^3H-] PGE2 (5 nM; specific activity 180 Ci mmol) was used as the radioligand for EP receptors. Binding studies employing EP1, EP2, EP3, EP4 were performed in duplicate in at least three separate experiments. A 200 μl assay volume was used. Incubations were for 60 min at 25° C. and were terminated by the addition of 4 ml of ice-cold 50 mM TRIS-HCl, followed by rapid filtration through Whatman GF/B filters and three additional 4 ml washes in a cell harvester (Brandel). Non-specific binding determined with 10^−5M of unlabeled PGE2.

[3] = biological target: hEP3A (Homo sapiens (Human), UniProt P43115); assay: FLIPR calcium signal, HEK-293(EBNA) cells expressing hEP3A/Gqi5; format: cell-based; conditions: for EC50: bottom number in Table 2, read-out: hEP3A functional EC50
Method: as §1, §2
Cells were excited with an Argon laser at 488 nm, and emission was measured through a 510-570 nm bandwidth emission filter (FLIPR™, Molecular Devices, Sunnyvale, Calif.). Drug solution was added in a 50 μl volume to each well to give the desired final concentration. The peak increase in fluorescence intensity was recorded for each well. On each plate, four wells each served as negative (HBSS-HEPES buffer) and positive controls (standard agonists: BW245C (hDP); PGE2 (hEP1; hEP2/Gqs5; hEP3A/Gqi5; hEP4/Gqs5); PGF2 (hFP); carbacyclin (hIP); U-46619 (hTP), depending on receptor). The peak fluorescence change in each drug-containing well was then expressed relative to the controls.
as §3, with “averaged. In either, HTS or CoRe format each compound was tested on at least 3 separate plates using cells from different passages to give an n≧3.” for “averaged.”

[4] = biological target: hEP1 (Homo sapiens (Human), UniProt P34995); assay: Radioligand binding ([3H]PGE2), HEK-293 cell membranes expressing EP1 receptor; conditions: top number in Table 2
Method: as §4, §5, §6

[5] = biological target: T1, hEP4; assay: Radioligand binding ([3H]PGE2), HEK-293 cell membranes expressing EP4 receptor; conditions: top number in Table 2
Method: as §4, §5, §6

[6] = biological target: T2, hEP2 (Homo sapiens (Human), UniProt P43116); assay: Radioligand binding ([3H]PGE2), HEK-293 cell membranes expressing EP2 receptor; conditions: top number in Table 2
Method: as §4, §5, §6

[7] = biological target: hTP (Homo sapiens (Human), UniProt P21731); assay: Table 2 top number, hTP (radioligand binding per footnote); conditions: top number in Table 2
[8] = biological target: hIP (Homo sapiens (Human), UniProt P43119); assay: Table 2 top number, hIP (radioligand binding per footnote); conditions: top number in Table 2
[9] = biological target: hDP (Homo sapiens (Human), UniProt Q13258); assay: Table 2 top number, hDP (radioligand binding per footnote); conditions: top number in Table 2
[10] = biological target: T2, hEP2; assay: FLIPR calcium signal, HEK-293(EBNA) cells expressing hEP2/Gqs5; format: cell-based; conditions: bottom number in Table 2, read-out: hEP2 functional EC50
Method: as §1
Cells were seeded at a density of 5×10^4 cells per well in Biocoat® Poly-D-lysine-coated black-wall, clear-bottom 96-well plates (Becton-Dickinson) and allowed to attach overnight in an incubator at 37° C. Cells were then washed two times with HBSS-HEPES buffer (Hanks Balanced Salt Solution without bicarbonate and phenol red, 20 mM HEPES, pH 7.4) using a Denley Cellwash plate washer (Labsystems). […]
Cells were excited with an Argon laser at 488 nm, and emission was measured through a 510-570 nm bandwidth emission filter (FLIPR™, Molecular Devices, Sunnyvale, Calif.). […] The peak increase in fluorescence intensity was recorded for each well. […] The peak fluorescence change in each drug-containing well was then expressed relative to the controls. […]

Sequence of hEP3D (P43115 other isoform, or with tags, fused parts or gaps): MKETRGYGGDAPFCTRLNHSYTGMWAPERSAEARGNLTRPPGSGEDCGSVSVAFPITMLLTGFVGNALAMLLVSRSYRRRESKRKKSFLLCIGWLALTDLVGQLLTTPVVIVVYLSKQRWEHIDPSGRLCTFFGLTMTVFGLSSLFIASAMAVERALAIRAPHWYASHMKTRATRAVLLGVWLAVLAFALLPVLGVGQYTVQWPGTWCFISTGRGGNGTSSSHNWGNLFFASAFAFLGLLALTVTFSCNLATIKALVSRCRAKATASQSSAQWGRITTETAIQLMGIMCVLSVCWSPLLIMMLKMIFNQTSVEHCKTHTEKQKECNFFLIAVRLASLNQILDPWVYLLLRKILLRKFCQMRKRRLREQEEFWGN
Sequence of hTP (P21731 whole entry): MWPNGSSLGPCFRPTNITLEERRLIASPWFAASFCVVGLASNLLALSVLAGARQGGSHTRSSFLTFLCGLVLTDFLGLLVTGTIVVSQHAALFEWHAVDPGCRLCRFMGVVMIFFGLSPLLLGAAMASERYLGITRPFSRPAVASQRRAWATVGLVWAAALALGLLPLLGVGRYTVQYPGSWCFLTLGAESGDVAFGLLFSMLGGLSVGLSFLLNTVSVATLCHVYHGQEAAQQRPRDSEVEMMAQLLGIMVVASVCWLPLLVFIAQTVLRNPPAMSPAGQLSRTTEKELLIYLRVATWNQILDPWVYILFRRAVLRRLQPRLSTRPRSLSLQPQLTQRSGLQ
T2 sequence (P43116 whole entry): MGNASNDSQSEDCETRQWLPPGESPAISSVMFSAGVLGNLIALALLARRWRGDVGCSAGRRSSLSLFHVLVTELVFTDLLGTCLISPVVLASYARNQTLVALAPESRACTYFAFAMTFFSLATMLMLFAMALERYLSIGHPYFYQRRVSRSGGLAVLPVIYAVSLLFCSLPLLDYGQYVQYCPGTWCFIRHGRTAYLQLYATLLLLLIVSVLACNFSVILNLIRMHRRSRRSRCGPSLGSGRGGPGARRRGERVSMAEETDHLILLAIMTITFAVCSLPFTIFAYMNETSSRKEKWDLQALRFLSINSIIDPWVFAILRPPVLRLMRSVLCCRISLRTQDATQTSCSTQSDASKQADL
T1 sequence (P35408 whole entry, looked up): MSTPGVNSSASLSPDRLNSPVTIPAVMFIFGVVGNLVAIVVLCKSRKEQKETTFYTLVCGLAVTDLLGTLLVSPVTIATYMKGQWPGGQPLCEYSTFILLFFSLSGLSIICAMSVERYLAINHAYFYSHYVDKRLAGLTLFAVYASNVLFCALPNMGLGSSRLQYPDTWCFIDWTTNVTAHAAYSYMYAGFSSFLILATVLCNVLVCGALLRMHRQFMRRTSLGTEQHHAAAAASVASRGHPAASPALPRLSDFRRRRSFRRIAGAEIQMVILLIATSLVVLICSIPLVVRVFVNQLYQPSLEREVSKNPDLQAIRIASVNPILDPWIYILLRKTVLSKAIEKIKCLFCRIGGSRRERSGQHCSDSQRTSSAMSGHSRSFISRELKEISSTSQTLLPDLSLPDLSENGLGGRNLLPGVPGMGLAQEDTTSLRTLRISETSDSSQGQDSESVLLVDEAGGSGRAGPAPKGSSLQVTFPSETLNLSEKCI
Sequence of hIP (P43119 whole entry): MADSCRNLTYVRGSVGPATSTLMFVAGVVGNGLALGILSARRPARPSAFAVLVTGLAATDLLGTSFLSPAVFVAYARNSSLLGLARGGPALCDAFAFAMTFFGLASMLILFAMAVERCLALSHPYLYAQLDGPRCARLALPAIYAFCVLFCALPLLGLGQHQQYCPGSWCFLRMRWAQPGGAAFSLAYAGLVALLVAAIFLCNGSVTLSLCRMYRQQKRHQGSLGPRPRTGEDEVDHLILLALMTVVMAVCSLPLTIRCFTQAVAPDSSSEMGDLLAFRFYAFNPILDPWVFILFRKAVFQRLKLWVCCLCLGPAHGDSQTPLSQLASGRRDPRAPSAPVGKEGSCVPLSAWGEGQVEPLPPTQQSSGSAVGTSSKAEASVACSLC
Sequence of hEP3A (P43115 whole entry): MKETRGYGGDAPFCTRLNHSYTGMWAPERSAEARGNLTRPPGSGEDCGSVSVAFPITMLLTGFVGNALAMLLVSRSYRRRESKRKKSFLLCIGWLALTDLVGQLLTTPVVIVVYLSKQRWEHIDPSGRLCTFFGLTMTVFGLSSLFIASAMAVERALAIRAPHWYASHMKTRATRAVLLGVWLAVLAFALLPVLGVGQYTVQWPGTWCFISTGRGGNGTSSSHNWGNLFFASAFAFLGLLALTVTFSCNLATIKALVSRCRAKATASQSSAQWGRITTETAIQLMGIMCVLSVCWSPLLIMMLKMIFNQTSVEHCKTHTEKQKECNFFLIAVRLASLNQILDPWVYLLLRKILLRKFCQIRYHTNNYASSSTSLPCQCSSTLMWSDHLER
Sequence of hEP1 (P34995 whole entry): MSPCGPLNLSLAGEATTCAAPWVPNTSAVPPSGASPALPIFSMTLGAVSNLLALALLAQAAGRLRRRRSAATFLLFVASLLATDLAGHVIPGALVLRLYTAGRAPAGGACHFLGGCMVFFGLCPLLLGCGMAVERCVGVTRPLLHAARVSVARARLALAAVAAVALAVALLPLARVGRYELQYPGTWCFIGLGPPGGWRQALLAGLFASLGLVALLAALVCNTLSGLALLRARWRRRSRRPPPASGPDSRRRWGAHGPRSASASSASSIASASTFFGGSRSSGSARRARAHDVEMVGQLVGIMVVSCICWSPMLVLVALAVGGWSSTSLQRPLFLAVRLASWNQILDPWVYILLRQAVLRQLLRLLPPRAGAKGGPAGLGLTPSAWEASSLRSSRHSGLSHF
Sequence of hDP (Q13258 whole entry): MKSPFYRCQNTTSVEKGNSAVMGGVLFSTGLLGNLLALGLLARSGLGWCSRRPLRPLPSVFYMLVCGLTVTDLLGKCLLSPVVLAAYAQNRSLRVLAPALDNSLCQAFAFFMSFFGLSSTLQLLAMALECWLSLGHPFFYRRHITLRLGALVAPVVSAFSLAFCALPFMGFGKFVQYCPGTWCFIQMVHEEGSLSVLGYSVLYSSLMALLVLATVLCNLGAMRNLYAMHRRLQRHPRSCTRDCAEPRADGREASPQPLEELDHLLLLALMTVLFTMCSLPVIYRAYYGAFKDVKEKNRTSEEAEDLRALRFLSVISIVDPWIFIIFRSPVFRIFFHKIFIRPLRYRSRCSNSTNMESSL

Row | Compound | EC50 [1] [nM] | EC50 [3] [nM] | IC50 [4] [nM] | IC50 [5] [nM] | hEP2 radioligand binding IC50 [6] [µM] | IC50 [2] [nM] | IC50 [7] [nM] | also measured
1 | CC1(C)C(=O)[C@H](C/C=C\CCCC(=O)O)[C@@H](/C=C/C(O)Cc2ccccc2)[C@@H]1O (single isomer, unassigned) [Compound 46] | 0.4 | 589 | 290 | 4 | > 10 | – | – | hEP3D radioligand binding IC50 [2]: > 10 µM
2 | CCCCC[C@H](O)/C=C/[C@@H]1[C@@H](C/C=C\CCCC(=O)OC)C(=O)C(C)(C)[C@H]1O [Compound 45, (Z)-7-[(1R,4S,5R)-4-Hydroxy-5-((E)-(S)-3-hydroxy-oct-1-enyl)-3,3-dimethyl-2-oxo-cyclopentyl]-hept-5-enoic acid methyl ester] | 51 | 531 | – | 400 | – | > 10000 | 631 | –
3 | COC(=O)CCC/C=C\C[C@H]1C(=O)C(C)(C)[C@@H](O)[C@@H]1/C=C/C(O)CCc1ccccc1 (single isomer, unassigned) [Compound 50] | 3160 | – | 638 | 2400 | – | 6610 | – | hEP3A functional EC50 ([3]; bottom number in Table 2): > 10 µM; hTP radioligand binding IC50 [7]: > 10 µM
4 | CC1(C)C(=O)[C@H](C/C=C\CCCC(=O)O)[C@@H](/C=C/C(O)CCc2sc3ccccc3c2Cl)[C@@H]1O (single isomer, unassigned) [Compound 41] | – | – | – | 20 | > 10 | – | – | hTP radioligand binding IC50 [7]: > 10 µM
5 | CC1(C)C(=O)[C@H](CC#CCCCC(=O)O)[C@@H](/C=C/C(O)CCc2sc3ccccc3c2Cl)[C@@H]1O (single isomer, unassigned) [Compound 37] | 32 | – | – | 100 | – | – | – | hIP radioligand binding IC50 [8]: > 10 µM
6 | CCCCC[C@H](O)/C=C/[C@@H]1[C@@H](CC#CCCCC(=O)O)C(=O)C(C)(C)[C@H]1O [Compound 43, 7-[(1R,4S,5R)-4-Hydroxy-5-((E)-(S)-3-hydroxy-oct-1-enyl)-3,3-dimethyl-2-oxo-cyclopentyl]-hept-5-ynoic acid] | 63 | 11 | > 10000 | 400 | – | 1700 | 18 | IC50 [8]: 3980 nM
7 | COC(=O)CSCCCS[C@H]1C(=O)C(C)(C)[C@@H](O)[C@@H]1/C=C/C(O)CCc1sc2ccccc2c1Cl (single isomer, unassigned) [Compound 21] | – | – | – | 98 | > 10 | – | – | –
8 | CC1(C)C(=O)[C@H](CC#CCCCC(=O)O)[C@@H](/C=C/C(O)CCc2sc3ccccc3c2Cl)[C@@H]1O (single isomer, unassigned) [Compound 36] | 66 | – | – | 200 | – | – | – | hIP radioligand binding IC50 [8]: > 10 µM
9 | CCCCC[C@H](O)/C=C/[C@@H]1[C@@H](C/C=C\CCCC(=O)O)C(=O)C(C)(C)[C@H]1O [Compound 44, (Z)-7-[(1R,4S,5R)-4-Hydroxy-5-((E)-(S)-3-hydroxy-oct-1-enyl)-3,3-dimethyl-2-oxo-cyclopentyl]-hept-5-enoic acid] | 0.2 | 4.6 | 782 | 5.5 | – | 300 | 18 | hDP radioligand binding IC50 [9]: > 10 µM; IC50 [8]: 284 nM; EC50 [10]: 944 nM; IC50 [6]: 1500 nM
